According to US20100266716A1, “Natural Photodynamic Agents and their use” (priority 2007, published 2010):

Assays:
Format in all cases: cell-based
[1] = tested on: Salmonella choleraesuis; assay: MBEC device biofilm photodynamic killing (Example 1); set-up: key to Killing of Salmonella cholerasuis biofilm (eradication or growth): “−” = biofilm eradication at the mentioned conditions (concentration, exposure time and Light source); “+” = biofilm growth; details: for Killing of Salmonella cholerasuis biofilm (eradication or growth): 16 Hours exposure
Description: (§1) Test microorganisms included Salmonella choleraesuis, Staphylococcus aureus, foodborne pathogens of humans. Test Compounds included Methylene blue, Hemoglobin (blood product), Hemin (blood product), Protoporphyrin (blood product), Annatto Extract (15% Norbixin), beet juice, Canthaxanthin (10%), Beta-carotene (1%), Purple carmine 50%, Carmine lake 60%, Black Carrot extract, Tomato lycopene (5%), sodium copper chlorophyllin, grape skin extract, paprika oleoresin, riboflavin, saffron, titanium dioxide, FD&C blue No1., turmeric oleoresin, FD&C blue No. 2, FD&C Green No. 3, FD&C Red No. 2 (Amaranth), FD&C Red No. 40, FD&C Yellow No. 5, and FD&C Yellow No. 6. Compounds were prepared as 1%, 0.1%, 0.01%, by weight, dissolved in water.
(§2) The light source was a full spectrum fluorescent light or LED light and the contact time was 1 and 16 hours. The study temperature was 37° C.
(§3) Approximately 10^6 organisms in 150 uL Cation Adjusted Mueller Hinton Broth (CAMHB) were placed in each of the wells of a 96 peg MBEC device. The lid of the 96 peg MBEC device was placed on the bottom plate containing organism. The device was placed on a shaker, set to 110 rpm, and incubated at 37° C. for 24 hours to produce biofilms.
(§4) The challenge plates were set up using a sterile 96-well microtitre plate using aseptic techniques in the following manner (one organism per plate, per light exposure time, per light source). Test solutions (200 uL) were placed into each well. The lid was transferred to the challenge plate and exposed to the various light sources for the prescribed exposure times (16 hours). Following the treatment, the pegs were transferred to the recovery media (“recovery plate”) then wrapped in tin foil and incubated at 37° C. for 18 to 24 hours. The recovery plate(s) was wrapped in tin foil, incubated at 37° C. for 24 hours and read visually and by a plate reader, set to an optical density measurement of 630 nm, to determine Minimum Biofilm Eradication Concentration (MBEC) by looking at growth or no growth.

[2] = tested on: Staphylococcus aureus; assay: as above; set-up: key to Killing of Staph aureus biofilm (eradication or growth): “−” = biofilm eradication at the mentioned conditions (concentration, exposure time and Light source); “+” = biofilm growth; details: 16 Hours exposure
Description: as §1, §2, §3, §4

[3] = tested on: E. coli 0157H7; assay: Photocatalytic food dyes Log10 counts (Example 2)
Description: as §1, §2, §3, §4
(§5) The test was conducted as shown in Example 1, but using Hemin (blood product), Protoporphyrin (blood product), Annatto Extract, and Turmeric. The group of tests organism also included E. Coli 0157H7.

[4] = tested on: Salmonella choleraesuis; assay: Photocatalytic food dyes Log10 counts (Example 2); details: S. choleraesuis, Control 7.28
Description: as §1, §2, §3, §4, §5

[5] = tested on: Staphylococcus aureus; assay: Photocatalytic food dyes Log10 counts (Example 2); details: Staph. aureus
Description: as §1, §2, §3, §4, §5

[6] = tested on: Pseudomonas syringae HB9; assay: Photodynamic activity on plant bacterial pathogen (Example 4)
Experimental: Test microorganism included Pseudomonas syringae, a food spoilage microorganism and plant pathogen. Test Compounds included Hemin (blood product), Annatto Extract, and Turmeric. Compounds were prepared as 1%, 0.1%, 0.01%, by weight, in 30% Mueller Hinton Broth in phosphate buffered saline. The light source was a broad spectrum fluorescent light or an LED light and the contact time was 16 hours. The study temperature was 28° C.
Approximately 10^6 organisms in 150 uL Cationic
Adjusted Mueller Hinton Broth were placed in each of the wells of a 96 peg MBEC device. The lid of the 96 peg MBEC device was placed on the bottom plate containing organism. The device was placed on a shaker, set to 110 rpm, and incubated at 28° C. for 24 hours.
The challenge plates were set up using a sterile 96-well microtitre plate using aseptic techniques in the following manner (one organism per plate, per light exposure time, per light source). Test solutions (200 uL) were placed into each well. The lid was transferred to the challenge plate and exposed to the various light sources for the prescribed exposure times (16 hours). Following the treatment, the pegs were transferred to the recovery media (“recovery plate”) then wrapped in tin foil and incubated at 28° C. for 18 to 24 hours.
The recovery plate(s) was wrapped in tin foil, incubated at 28° C. for 24 hours and read visually and by a plate reader, set to an optical density measurement of 630 nm, to determine MBEC growth.

[7] = Fluorescent Light 16 hours, 0.01%, Control 6.51
[8] = Fluorescent Light 16 hours, 0.1%, Control 6.51
[9] = Fluorescent Light 16 hours, 1%, Control 6.51
[10] = LED Light 16 hours, 0.01%, Control 6.36
[11] = LED Light 16 hours, 0.1%, Control 6.36
[12] = LED Light 16 hours, 1%, Control 6.36
[13] = Fluorescent Light 16 hours, 0.01%
[14] = Fluorescent Light 16 hours, 0.1%
[15] = Fluorescent Light 16 hours, 0.01%, Control 6.48
[16] = Fluorescent Light 16 hours, 0.1%, Control 6.48
[17] = Fluorescent Light 16 hours, 1%, Control 6.48
[18] = LED Light 16 hours, 0.01%, Control 6.95
[19] = LED Light 16 hours, 0.1%, Control 6.95
[20] = LED Light 16 hours, 1%, Control 6.95

Compound: CN(C)c1ccc2nc3ccc(=[N+](C)C)cc-3sc2c1 [Methylene blue, reference compound]
- Killing of Salmonella cholerasuis biofilm (eradication or growth) ([1]; Fluorescent Light, 0.01%): −
- Killing of Salmonella cholerasuis biofilm (eradication or growth) ([1]; Fluorescent Light, 0.1%): −
- Killing of Salmonella cholerasuis biofilm (eradication or growth) ([1]; Fluorescent Light, 1%): −
- Killing of Salmonella cholerasuis biofilm (eradication or growth) ([1]; LED Light, 0.01%): −
- Killing of Salmonella cholerasuis biofilm (eradication or growth) ([1]; LED Light, 0.1%): −
- Killing of Salmonella cholerasuis biofilm (eradication or growth) ([1]; LED Light, 1%): −
- Killing of Staph aureus biofilm (eradication or growth) ([2]; Fluorescent Light, 0.01%): −
- Killing of Staph aureus biofilm (eradication or growth) ([2]; Fluorescent Light, 0.1%): −
- Killing of Staph aureus biofilm (eradication or growth) ([2]; Fluorescent Light, 1%): −
- Killing of Staph aureus biofilm (eradication or growth) ([2]; LED Light, 0.01%): −
- Killing of Staph aureus biofilm (eradication or growth) ([2]; LED Light, 0.1%): −
- Killing of Staph aureus biofilm (eradication or growth) ([2]; LED Light, 1%): −
- Average Log10 counts [3, 7]: 3.41 Log10
- Average Log10 counts [3, 8]: 0.79 Log10
- Average Log10 counts [3, 9]: 0.35 Log10
- Average Log10 counts [3, 10]: 1.77 Log10
- Average Log10 counts [3, 11]: 0.00 Log10
- Average Log10 counts [3, 12]: 0.00 Log10
- Average Log10 counts [4, 13]: 0.00 Log10
- Average Log10 counts [4, 14]: 0.00 Log10
- Average Log10 counts ([4]; Fluorescent Light 16 hours, 1%): 0.00 Log10
- Average Log10 counts ([4]; LED Light 16 hours, 0.01%): 2.27 Log10
- Average Log10 counts ([4]; LED Light 16 hours, 0.1%): 0.00 Log10
- Average Log10 counts ([4]; LED Light 16 hours, 1%): 3.20 Log10
- Average Log10 counts [5, 15]: 3.20 Log10
- Average Log10 counts [5, 16]: 0.00 Log10
- Average Log10 counts [5, 17]: 0.00 Log10
- Average Log10 counts [5, 18]: 5.71 Log10
- Average Log10 counts [5, 19]: 5.40 Log10
- Average Log10 counts [5, 20]: 4.84 Log10

Compound: Hemin
- Killing of Salmonella cholerasuis biofilm (eradication or growth) ([1]; Fluorescent Light, 0.01%): −
- Killing of Salmonella cholerasuis biofilm (eradication or growth) ([1]; Fluorescent Light, 0.1%): −
- Killing of Salmonella cholerasuis biofilm (eradication or growth) ([1]; Fluorescent Light, 1%): −
- Killing of Salmonella cholerasuis biofilm (eradication or growth) ([1]; LED Light, 0.01%): +
- Killing of Salmonella cholerasuis biofilm (eradication or growth) ([1]; LED Light, 0.1%): +
- Killing of Salmonella cholerasuis biofilm (eradication or growth) ([1]; LED Light, 1%): −
- effective as photodynamic agent in killing biofilm organisms ([1]; Salmonella choleraesuis and Staphylococcus aureus biofilm, summary of Table 1): Effective
- Killing of Staph aureus biofilm (eradication or growth) ([2]; Fluorescent Light, 0.01%): +
- Killing of Staph aureus biofilm (eradication or growth) ([2]; Fluorescent Light, 0.1%): +
- Killing of Staph aureus biofilm (eradication or growth) ([2]; Fluorescent Light, 1%): +
- Killing of Staph aureus biofilm (eradication or growth) ([2]; LED Light, 0.01%): +
- Killing of Staph aureus biofilm (eradication or growth) ([2]; LED Light, 0.1%): +
- Killing of Staph aureus biofilm (eradication or growth) ([2]; LED Light, 1%): +
- Average Log10 counts [3, 7]: 3.17 Log10
- Average Log10 counts [3, 8]: 3.79 Log10
- Average Log10 counts [3, 9]: 3.06 Log10
- Average Log10 counts [3, 10]: 4.18 Log10
- Average Log10 counts [3, 11]: 4.22 Log10
- Average Log10 counts [3, 12]: 0.00 Log10
- Average Log10 counts [4, 13]: 2.79 Log10
- Average Log10 counts [4, 14]: 3.85 Log10
- Average Log10 counts ([4]; Fluorescent Light 16 hours, 1%): 4.55 Log10
- Average Log10 counts ([4]; LED Light 16 hours, 0.01%): 4.02 Log10
- Average Log10 counts ([4]; LED Light 16 hours, 0.1%): 4.48 Log10
- Average Log10 counts ([4]; LED Light 16 hours, 1%): 4.74 Log10
- Average Log10 counts [5, 15]: 2.21 Log10
- Average Log10 counts [5, 16]: 0.79 Log10
- Average Log10 counts [5, 17]: 0.00 Log10
- Average Log10 counts [5, 18]: 5.52 Log10
- Average Log10 counts [5, 19]: 3.75 Log10
- Average Log10 counts [5, 20]: 1.51 Log10
- Average Log10 growth reductions [6, 13]: 1.07 log10 CFU
- Average Log10 growth reductions [6, 14]: 0.92 log10 CFU
- Average Log10 growth reductions ([6]; Fluorescent Light 16 hours, 1%): 1.51 log10 CFU
- Average Log10 growth reductions ([6]; LED Light 16 hours, 0.01%): 1.48 log10 CFU
- Average Log10 growth reductions ([6]; LED Light 16 hours, 0.1%): 1.32 log10 CFU
- Average Log10 growth reductions ([6]; LED Light 16 hours, 1%): 3.97 log10 CFU
